# Measured values as given in ChEMBL document CHEMBL1127438, “Substituted (S)-phenylpiperidines and rigid congeners as preferential dopamine autoreceptor antagonists: synthesis and structure-activity relationships” (J Med Chem, 1994).
# Several values for one entry are separate records, joined by “and”; a condition that tells them apart may be missing. Equal entries are not always repeated.
# Experiments:
# D(2) dopamine receptor [1] = molecular target: T1, D(2) dopamine receptor (Homo sapiens, UniProt P14416); test: biochemical
# Description: Affinity against recombinant dopamine receptor (DA) D2 expressed in CHO-K1 cells, using [3H]-spiperone as radioligand
# Rattus norvegicus [2] = test: Compound is evaluated for DOPAC accumulation in nonpretreated habituated rats after subcuteneous dose of 100 micro mol/kg in rat striatum; assay type: functional
# Rattus norvegicus [3] = test: Evaluated biochemically in nonpretreated habituated rats for (100 uM/kg) subcuteneous dose, Value expressed as locomotor activity (LMA); assay type: functional
# Rattus norvegicus [4] = test: Evaluated biochemically in reserpine-pretreated habituated rats for (100 umol/kg) subcuteneous dose in rat striatum (DOPAacc), Value expressed as counts/30 min; assay type: functional
# D(2) dopamine receptor [5] = molecular target: T2, D(2) dopamine receptor (Rattus norvegicus, UniProt P61169)
# Description: Affinity against striatal dopamine D2 receptors using [3H]spiperone as radioligand in rats.
# Rattus norvegicus [6] = test: Evaluated biochemically in reserpine-pretreated habituated rats for (100 umol/kg) subcuteneous dose, Value expressed as locomotor activity (LMA); assay type: functional
# Rattus norvegicus [7] = test: Effect (60 min after administration of 200 (1.6 micro mol/kg) subcuteneous dose on DA release in brain dialysis model of rat; assay type: functional
# Rattus norvegicus [8] = test: Evaluated for biochemical levels of DOPAC in nonpretreated habituated rats for subcuteneous dose of 100 micro mol/kg in rat striatum; assay type: functional
# Rattus norvegicus [9] = test: Compound is evaluated for DOPA accumulation in reserpine-pretreated habituated rats fat 3.2 micro mol/kg of subcuteneous dose in rat striatum; assay type: functional
# Rattus norvegicus [10] = test: Compound is evaluated for locomotor activity in nonpretreated habituated rats in 25 umol/kg of subcuteneous dose; assay type: functional
# Rattus norvegicus [11] = test: Compound is evaluated biochemically in nonhabituated rats for (0.64 micro mol/kg) subcuteneous dose in rat striatum (DOPAacc); assay type: functional
# Rattus norvegicus [12] = test: Compound is evaluated for locomotor activity in reserpine-pretreated habituated rats at 3.2 umol/kg) of subcuteneous dose; assay type: functional
# Rattus norvegicus [13] = test: Compound is evaluated for locomotor activity in nonhabituated rats at 3.2 umol/kg of subcuteneous dose; assay type: functional
# D(2) dopamine receptor [14] = molecular target: T2, D(2) dopamine receptor; test: Tested for affinity against striatal dopamine autoreceptor (DA) D2 receptors using [3H]spiperone as radioligand in rats.
# Rattus norvegicus [15] = test: Compound is evaluated for DOPA accumulation in reserpine-pretreated habituated rats at 100 micro mol/kg of subcuteneous dose in rat striatum; assay type: functional
# Rattus norvegicus [16] = test: Compound is evaluated biochemically in reserpine-pretreated habituated rats for (50 micro mol/kg) subcuteneous dose in 5-HTP; assay type: functional
# Dopamine receptor = test: Tested for in vitro binding affinity against cloned mammalian dopamine autoreceptor (DA) receptors expressed in CHO-K1 cells using [3H]U-86170 as radioligand; assay type: cell-based
# Rattus norvegicus [17] = test: Evaluated for locomotor activity in nonpretreated habituated rats in 100 umol/kg of subcuteneous dose; assay type: functional; design: unit not given here
# D(3) dopamine receptor [18] = molecular target: T3, D(3) dopamine receptor (Homo sapiens, UniProt P35462); test: Tested for in vitro binding affinity against cloned mammalian dopamine autoreceptor (DA) receptors expressed in CHO-K1 cells [3H]-spiperone as radioligand; assay type: cell-based
# Rattus norvegicus [19] = test: Evaluated for DOPA accumulation in nonhabituated rats at 100 umol/kg of subcuteneous dose in rat striatum; assay type: functional
# Rattus norvegicus [20] = test: Effect (60 min after administration of 200 (micro mol/kg) subcuteneous dose on DA release in brain dialysis model of rat striatum; assay type: functional
# Rattus norvegicus [21] = test: Compound is tested for its ability to displace Di-Pr-5,6-ADTN at […] subcutaneous dose from rat striatal binding sites in vivo; assay type: functional
# Rattus norvegicus [22] = test: Compound is evaluated for DOPA accumulation in reserpine-pretreated habituated rats at 100 umol/kg of subcuteneous dose in rat striatum; assay type: functional
# Rattus norvegicus [23] = species on record: Rattus norvegicus; test: Compound is tested for concomitant ability to antagonize the locomotor activity induced by Di-Pr-5,6-ADTN; assay type: functional
# Rattus norvegicus [24] = test: Effect (60 min after administration of 200 (micro mol/kg) subcuteneous dose on DA release in brain dialysis model of rat; assay type: functional
# Rattus norvegicus [25] = test: Compound is evaluated for locomotor activity in nonhabituated rats at 1.3 micro mol/kg of subcuteneous dose; assay type: functional
# Rattus norvegicus [26] = test: Compound is evaluated for locomotor activity in nonpretreated habituated rats at 1.6 micro mol/kg of subcuteneous dose; assay type: functional
# Rattus norvegicus [27] = test: Compound is evaluated DOPA accumulation in nonhabituated rats for (1.3 micro mol/kg) subcuteneous dose in rat striatum; assay type: functional
# Rattus norvegicus [28] = test: Effect (60 min after administration of 200 (5.3 umol/kg) subcuteneous dose on DA release in brain dialysis model of rat; assay type: functional
# Rattus norvegicus [29] = test: Compound is evaluated for DOPA accumulation in nonpretreated habituated rats for subcuteneous dose of 100 micro mol/kg in rat striatum; assay type: functional
# Rattus norvegicus [30] = test: Compound is evaluated for DOPA accumulation in reserpine-pretreated habituated rats at 50 umol/kg of subcuteneous dose in rat striatum; assay type: functional
# Rattus norvegicus [31] = test: Compound is evaluated for locomotor activity in nonpretreated habituated rats in 50 umol/kg of subcuteneous dose; assay type: functional
# D(3) dopamine receptor [32] = molecular target: D(3) dopamine receptor (Rattus norvegicus, UniProt P19020); test: Tested for in vitro binding affinity against cloned mammalian dopamine autoreceptor, expressed in CHO-K1 cells, using [3H]spiperone as radioligand; assay type: cell-based
# Rattus norvegicus [33] = test: Evaluated for DOPA accumulation (DOPAacc) level in nonhabituated rats after subcuteneous dose (100 uM/kg) in rat striatum; assay type: functional
# Rattus norvegicus [34] = test: Compound is evaluated biochemically in nonhabituated rats for (100 umol/kg) subcuteneous dose, Value expressed as locomotor activity (LMA); assay type: functional
# D(2) dopamine receptor [35] = molecular target: T1, D(2) dopamine receptor; test: biochemical; remark: listed apart in the source
# Description: In vitro binding affinity against cloned mammalian dopamine D2 autoreceptor, expressed in CHO-K1 cells, using [3H]U-86170 as radioligand
# Rattus norvegicus [36] = test: Evaluated for DOPAC level in nonpretreated habituated rats after subcuteneous dose of 100 micro mol/kg in rat striatum; assay type: functional
# D(3) dopamine receptor [37] = molecular target: T3, D(3) dopamine receptor; test: Tested for in vitro binding affinity against cloned mammalian dopamine D3 receptor, expressed in CHO-K1 cells, using [3H]spiperone as radioligand; assay type: cell-based
# Rattus norvegicus [38] = test: Evaluated biochemically in nonhabituated rats for (100 umol/kg) subcuteneous dose, Value expressed as locomotor activity (LMA); assay type: functional
# Rattus norvegicus [39] = test: Tested in vivo for its ability to displace DA receptor agonist (Di-Pr-5,6-ADTN) from rat striatal binding sites at 0.25 uM/Kg sc. dose (after subtraction of cerebellum levels); assay type: functional
# Rattus norvegicus [40] = test: Effect of (60 min after administration of 200 (uM/kg) subcuteneous dose on DA release in brain dialysis model of rat striatum; Values expressed as percent of saline controls; assay type: functional
# Rattus norvegicus [41] = species on record: Rattus norvegicus; test: Compound was tested in vio for concomitant ability to antagonize the locomotor activity of rat induced by Di-Pr-5,6-ADTN, Value expressed as locomotor activity (LMA), % of control; assay type: functional; design: scale not given: the % may be the effect or the level left
# T2 sequence (P61169 whole entry): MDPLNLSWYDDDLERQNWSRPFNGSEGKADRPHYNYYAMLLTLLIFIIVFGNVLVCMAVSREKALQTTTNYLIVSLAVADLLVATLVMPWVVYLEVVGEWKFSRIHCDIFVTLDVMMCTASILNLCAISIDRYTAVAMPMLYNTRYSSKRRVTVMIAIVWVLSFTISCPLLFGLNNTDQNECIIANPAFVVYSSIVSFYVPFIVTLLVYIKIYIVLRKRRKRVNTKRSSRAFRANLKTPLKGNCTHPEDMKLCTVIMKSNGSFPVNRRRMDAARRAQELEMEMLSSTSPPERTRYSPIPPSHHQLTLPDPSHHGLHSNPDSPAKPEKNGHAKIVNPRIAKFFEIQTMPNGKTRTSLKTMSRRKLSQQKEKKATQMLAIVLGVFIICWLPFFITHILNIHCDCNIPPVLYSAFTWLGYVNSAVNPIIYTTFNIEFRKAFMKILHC
# T3 sequence (P35462 whole entry): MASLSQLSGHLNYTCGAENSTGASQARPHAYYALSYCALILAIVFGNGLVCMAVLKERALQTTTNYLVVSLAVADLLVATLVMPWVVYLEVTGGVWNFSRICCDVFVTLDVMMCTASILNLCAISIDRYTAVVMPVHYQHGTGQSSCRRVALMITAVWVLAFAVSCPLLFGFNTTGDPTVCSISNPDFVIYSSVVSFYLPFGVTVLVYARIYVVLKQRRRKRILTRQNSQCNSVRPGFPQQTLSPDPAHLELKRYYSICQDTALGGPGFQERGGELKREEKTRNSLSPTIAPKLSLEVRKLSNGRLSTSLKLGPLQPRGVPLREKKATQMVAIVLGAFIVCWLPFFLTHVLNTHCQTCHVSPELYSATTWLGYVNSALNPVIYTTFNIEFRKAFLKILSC
# T1 sequence (P14416 whole entry): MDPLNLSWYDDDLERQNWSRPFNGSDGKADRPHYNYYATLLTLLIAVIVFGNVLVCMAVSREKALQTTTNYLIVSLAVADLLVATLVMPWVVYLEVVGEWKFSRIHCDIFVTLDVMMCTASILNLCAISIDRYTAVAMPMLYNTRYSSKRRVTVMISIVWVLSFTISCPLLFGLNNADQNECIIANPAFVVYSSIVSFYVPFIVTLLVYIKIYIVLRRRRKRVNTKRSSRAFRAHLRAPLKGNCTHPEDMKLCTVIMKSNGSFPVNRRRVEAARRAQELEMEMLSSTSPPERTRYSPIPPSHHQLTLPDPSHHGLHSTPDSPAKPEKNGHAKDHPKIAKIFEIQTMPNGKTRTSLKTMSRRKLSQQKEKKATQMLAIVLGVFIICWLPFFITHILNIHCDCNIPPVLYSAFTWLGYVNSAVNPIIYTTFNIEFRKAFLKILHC
# Chain of D(3) dopamine receptor (Rattus norvegicus, UniProt P19020) (P19020 whole entry): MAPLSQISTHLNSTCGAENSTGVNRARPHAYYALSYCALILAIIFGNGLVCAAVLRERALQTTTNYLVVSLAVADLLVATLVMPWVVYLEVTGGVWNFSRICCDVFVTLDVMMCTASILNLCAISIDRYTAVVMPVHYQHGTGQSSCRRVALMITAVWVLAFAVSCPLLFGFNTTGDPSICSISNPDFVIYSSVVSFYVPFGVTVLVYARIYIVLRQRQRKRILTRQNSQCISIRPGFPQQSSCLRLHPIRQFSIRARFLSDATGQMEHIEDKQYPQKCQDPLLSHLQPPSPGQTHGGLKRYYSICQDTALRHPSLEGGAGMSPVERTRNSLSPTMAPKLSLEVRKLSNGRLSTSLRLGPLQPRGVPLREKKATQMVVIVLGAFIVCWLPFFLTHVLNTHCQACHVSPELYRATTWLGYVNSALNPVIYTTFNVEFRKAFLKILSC
Structure (SMILES),Ki (D(2) dopamine receptor [1]),Control (Rattus norvegicus [3]),Activity (Rattus norvegicus [4]),Ki (D(2) dopamine receptor [5]),Control (Rattus norvegicus [6]),Activity (Rattus norvegicus [8]),Ki (D(2) dopamine receptor [14]),Activity (Rattus norvegicus [15]),Ki (Dopamine receptor),LMA (Rattus norvegicus [17]),Ki (D(3) dopamine receptor [18]),other results
CCCN1CCC[C@@H](c2cccc(N)c2)C1,> 217 nM,113%,91%,2000 nM,72%,,,,,,,Activity (Rattus norvegicus [2]): 128%
CN1CCc2cccc3c2[C@H]1Cc1ccc(O)c(O)c1-3 [APOMORPHINE],,,,,,65%,,,,,,Activity (Rattus norvegicus [7]): 37%; Activity (Rattus norvegicus [9]): 20%; LMA (Rattus norvegicus [10]): 491; Activity (Rattus norvegicus [11]): 53%; LMA (Rattus norvegicus [12]): 366; LMA (Rattus norvegicus [13]): 277
C=CCN1CCC2c3cccc(OS(=O)(=O)C(F)(F)F)c3CCC21 (stereo not given),> 217 nM,,,,,175%,> 172 nM,92%,125 nM,443 and 635,67 nM,Activity (Rattus norvegicus [16]): 52%
CCCN1CCC[C@@H](c2ccccc2)C1,> 217 nM,,,,,188%,1490 nM,,222 nM,,777 nM,Activity (Rattus norvegicus [19]): 140%; Activity (Rattus norvegicus [20]): 473%; Activity (Rattus norvegicus [21]): 20%; Activity (Rattus norvegicus [22]): 65%; LMA (Rattus norvegicus [23]): 90%
O=S(=O)(Oc1cccc([C@@H]2CCCN(CCc3ccccc3)C2)c1)C(F)(F)F,73 nM,,,,,,40 nM,66%,11 nM,20,19 nM,Activity (Rattus norvegicus [19]): 111%; Activity (Rattus norvegicus [24]): 89%
O=C(CCCN1CCC(O)(c2ccc(Cl)cc2)CC1)c1ccc(F)cc1 [HALOPERIDOL],,,,,,404%,,,,,,LMA (Rattus norvegicus [25]): 2; LMA (Rattus norvegicus [26]): 61; Activity (Rattus norvegicus [27]): 356%; Activity (Rattus norvegicus [21]): 82%; Activity (Rattus norvegicus [28]): 211%; LMA (Rattus norvegicus [23]): 7%
CCCc1cccc([C@@H]2CCCN(CCC)C2)c1,> 217 nM,,,,,181%,392 nM,62%,57 nM,,86 nM,LMA (Rattus norvegicus [15]): 734; Activity (Rattus norvegicus [29]): 190%
CCCN1CCCC2c3cccc(OS(=O)(=O)C(F)(F)F)c3CCC21 (stereo in doubt; 46),> 217 nM,,,,,263%,64 nM,62%,21 nM,200,22 nM,Activity (Rattus norvegicus [30]): 85%; LMA (Rattus norvegicus [31]): 211
CCCN1CCC[C@@H](c2cccc(OC)c2)C1,> 217 nM,463%,66%,3440 nM,23%,,,,,,,Ki (D(3) dopamine receptor [32]): 1330 nM; Activity (Rattus norvegicus [33]): 131%; Control (Rattus norvegicus [34]): 160%; Ki (D(2) dopamine receptor [35]): 602 nM; Activity (Rattus norvegicus [36]): 149%
CCCN1CCC[C@@H](c2cccc(OS(C)(=O)=O)c2)C1,> 217 nM,576%,74%,4170 nM,18%,,,,,,,Ki (D(3) dopamine receptor [37]): 978 nM; Locomotor activity (% of control) (Rattus norvegicus [38]): 154%; Control (Rattus norvegicus [39]): 55%; Activity (Rattus norvegicus [40]): 234%; Control (Rattus norvegicus [41]): 46%; Activity (Rattus norvegicus [33]): 249%; Ki (D(2) dopamine receptor [35]): 192 nM
